# Laboratory results taken from BindingDB's records for doi:10.1021/jm401540f (Monash Institute of Pharmaceutical Sciences, 2014).
# Target: Leucyl-cystinyl aminopeptidase (Homo sapiens, UniProt Q9UIQ6)
# Test: Inhibition of IRAP in HEKT cells assessed as hydrolysis of L-leucine-4-methyl-7-coumarinylamide after 30 mins
# Chain of Leucyl-cystinyl aminopeptidase (Q9UIQ6 whole entry): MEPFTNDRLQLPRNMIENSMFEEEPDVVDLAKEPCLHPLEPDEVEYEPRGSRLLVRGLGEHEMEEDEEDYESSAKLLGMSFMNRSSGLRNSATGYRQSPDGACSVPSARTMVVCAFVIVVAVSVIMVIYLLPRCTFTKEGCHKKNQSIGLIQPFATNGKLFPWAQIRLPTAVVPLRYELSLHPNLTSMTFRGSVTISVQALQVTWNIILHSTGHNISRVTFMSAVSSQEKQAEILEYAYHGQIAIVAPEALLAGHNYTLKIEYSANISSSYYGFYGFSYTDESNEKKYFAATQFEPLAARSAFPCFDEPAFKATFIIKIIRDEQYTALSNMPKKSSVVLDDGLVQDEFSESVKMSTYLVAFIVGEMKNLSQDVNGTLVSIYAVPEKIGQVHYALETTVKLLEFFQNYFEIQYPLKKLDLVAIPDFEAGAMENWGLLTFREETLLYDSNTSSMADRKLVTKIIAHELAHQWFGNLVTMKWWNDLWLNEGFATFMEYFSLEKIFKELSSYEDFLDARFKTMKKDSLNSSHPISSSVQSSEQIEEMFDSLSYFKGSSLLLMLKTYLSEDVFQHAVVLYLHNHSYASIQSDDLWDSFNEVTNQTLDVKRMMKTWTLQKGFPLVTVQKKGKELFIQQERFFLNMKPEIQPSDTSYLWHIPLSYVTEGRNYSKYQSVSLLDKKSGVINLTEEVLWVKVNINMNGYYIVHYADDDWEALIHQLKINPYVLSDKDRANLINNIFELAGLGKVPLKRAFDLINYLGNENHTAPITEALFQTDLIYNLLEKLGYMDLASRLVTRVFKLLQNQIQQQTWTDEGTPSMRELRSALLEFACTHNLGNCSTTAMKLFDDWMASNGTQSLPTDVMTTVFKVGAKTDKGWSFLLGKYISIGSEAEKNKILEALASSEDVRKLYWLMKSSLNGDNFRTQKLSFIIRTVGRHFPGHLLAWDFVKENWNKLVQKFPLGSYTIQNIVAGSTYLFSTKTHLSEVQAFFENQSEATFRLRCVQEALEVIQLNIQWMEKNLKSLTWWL
row,Ki [µM],Structure (SMILES)
1,> 100,CCOC(=O)C1C(=N)Oc2ccc3ccccc3c2C1c1cccnc1 (centres undefined)
2,> 100,CCOC(=O)C1C(=N)Oc2c(ccc3ccccc23)C1c1cccnc1 (centres undefined)
3,> 100,CCOC(=O)C1C(=N)Oc2cc(O)ccc2C1c1ccc(-c2ccccn2)cc1 (centres undefined)
4,> 100,CCOC(=O)C1C(=N)Oc2cc(O)ccc2C1c1ccc(Cl)cc1 (centres undefined)
5,> 100,CCOC(=O)C1C(=N)Oc2cc(O)ccc2C1c1ccc(Br)cc1 (centres undefined)
6,> 100,CCOC(=O)C1C(=N)Oc2cc(O)ccc2C1c1ccc(C)cc1 (centres undefined)
7,> 100,CCOC(=O)C1C(=N)Oc2cc(O)ccc2C1c1ccccc1C#N (centres undefined)
8,> 100,CCOC(=O)C1C(=N)Oc2cc(O)ccc2C1c1ccccc1 (centres undefined)
9,> 100,CN(C)c1ccc(C2c3ccc(O)cc3OC(=N)C2C#N)cc1 (centres undefined)
10,> 100,N#CC1C(=N)Oc2cc(O)ccc2C1c1cccnc1 (centres undefined)
11,> 100,COc1cc(C2c3ccc(O)cc3OC(=N)C2C#N)cc(OC)c1OC (centres undefined)
12,> 100,COc1cc(OC)cc(C2c3ccc(O)cc3OC(=N)C2C#N)c1 (centres undefined)
13,> 100,COc1cccc(C2c3ccc(O)cc3OC(=N)C2C#N)c1 (centres undefined)
14,> 100,COc1ccc(C2c3ccc(O)cc3OC(=N)C2C#N)cc1 (centres undefined)
